# Results: a melting point compilation (Tetko et al.; mined from patent text by program, amines drawn as free bases though some values may be those of a salt)
row,melting point [°C],Structure (SMILES)
1,99 to 100,O=C(CCCN1CCC(c2ccc(Cl)cc2)CC1)c1ccc2c(c1)CCN(Cc1ccccc1)CC2
2,130 to 132,COc1cc(Nc2c(C#N)cnc3cc(OCCCN4CCC(N5CCCCC5)CC4)c(OC)cc23)c(Cl)cc1Cl
3,228 to 229,CCn1cc(C(=O)O)c(=O)c2cc(F)c(N3CCN4CCC3C4)nc21 (stereo not drawn)
4,109 to 110,CCOC(=O)c1sc(OCC)c2c1CCc1cnn(C)c1-2
5,111 to 112,CCOC(=O)CC1c2cc(OC)ccc2N(c2nc(Cl)nc3ccccc23)C1C (stereo not drawn)
6,146 to 147,N#Cc1cc2n(c1)CCc1ccccc1C2=O
7,96.8,Cn1cncc1C(c1ccc(Cl)cc1)c1ccc2c(c1)c(-c1ccccc1)cc(=O)n2C (stereo not drawn)
8,136 to 137,CS(=O)(=O)Nc1cc(N)c([N+](=O)[O-])cc1OC1CCCCC1
9,201,NC(=O)c1ccc(-c2nc(O)c3c(n2)CCC3)cc1
10,132 to 134,Nc1cc(Br)nn1-c1c(Cl)cc(C(F)(F)F)cc1Cl
11,141 to 144,O=C(O)COc1c(-c2cccc(Cl)c2)cc(C(=O)NCCCCCCCCn2ccc3cc(F)ccc32)cc1-c1cccc(Cl)c1
12,115 to 117,CN1C(=S)N(c2ccc(Cl)c(Cl)c2)C(O)C1O (stereo not drawn)
13,120 to 122,CCCCc1nc(Cl)c(C(=O)N2CCCC2)n1Cc1ccc2oc(-c3ccccc3-c3nnn[nH]3)c(Br)c2c1
14,228 to 230,COc1cc(N2C(=O)c3ccccc3C2=O)c2nccc(C)c2c1Oc1cccc(C(F)(F)F)c1
15,123 to 125,O=c1oc(-c2ccc(OCCO)cc2)cc(O)c1SCCc1ccccc1
16,212 to 215,Cc1ccc(-c2c(Cl)nc(C#N)n2O)cc1
17,157 to 161,Cc1noc(-c2cccc(NC(=O)N[C@@H]3c4cc(C#N)ccc4OC(C)(C)[C@H]3O)c2)n1
18,121 to 123,Cc1c(C)c(C2CC(=O)C=C(O)C2)c(C)c2c1CC(C)(C)O2 (stereo not drawn)
19,88 to 90,CCOC(=O)C1=CC2(CCC1S(=O)(=O)Nc1ccc(F)cc1Cl)S(=O)(=O)CCS2(=O)=O (stereo not drawn)

row,melting point [°C],Structure (SMILES)
1,233 to 234,CC(C)Nc1c(NCc2ccccc2)cc(C(=O)O)cc1S(N)(=O)=O
2,208 to 209,COc1nc2cccc(C(=O)O)c2n1Cc1ccc(-c2ccccc2-c2nnn[nH]2)cc1
3,168 to 170,Fc1ccc2c(c1)nc(/C=C/c1ccoc1)n2-c1ccccn1
4,103 to 106,Nc1nc2c(s1)CCN(CC=Cc1ccccc1Br)CC2
5,132,OCc1nn(-c2ccccc2Cl)cc1-c1ccccc1
6,157 to 158,CCOC(=O)C=CCn1c(C(=O)c2cc(C)cc(C)c2)c(CC)c(=O)[nH]c1=O
7,119 to 121,CCOC(=O)c1ccc2c(c1)C(=O)N(C1CC(C)(C)N(C(C)=O)C(C)(C)C1)C2=O
8,137 to 139,Cc1ccc(-c2cccc(/C=C/C(=O)Nc3ccc(CN4CCCCC4CO)cc3)c2)cc1 (stereo not drawn)
9,195 to 196,O=c1c(Cl)c(S(=O)(=O)C2CCCCC2)cnn1-c1ccccc1
10,204 to 205,COC(=O)Nc1nccc(Oc2ccc3c(C(=O)Nc4ccc(F)c(C(F)(F)F)c4)cccc3c2)n1
11,111 to 112,CC(=O)Nc1ccc2c(c1)NC(=O)C(CCCN1CCN(c3ccc(F)cc3)CC1)O2 (stereo not drawn)
12,243 to 245,CN1C(C(=O)Nc2ccc(Cl)ccc2=O)=C(O)c2sccc2S1(=O)=O
13,245 to 247,CCc1nc2c(C)cc(C)nc2n1Cc1ccc(-c2ccccc2-c2c(O)c(=O)c2=O)cc1
14,159 to 160,CCN(CC)C(=O)Cc1cccc(Oc2ccccc2F)c1N
15,102,Clc1ncc(Cl)n2ccnc12
16,68 to 69,CNC(=O)[C@H](Cc1ccc2ccccc2c1)NC(=O)C(CCOc1c(F)c(F)c(F)c(F)c1F)CC(=O)O (stereo partly drawn)
17,133 to 134,CCCc1nc(C(=O)C(C)C)c(C#N)n1Cc1ccc(-c2ccccc2-c2nnnn2C(c2ccccc2)(c2ccccc2)c2ccccc2)cc1
18,92,O=c1oc(OCc2ccccc2)c(Cl)c2ccccc12

# Second part, the compound before the results:
row,Structure (SMILES),melting point [°C]
1,COc1ccc(C(CC(=O)O)CC(=O)O)cc1,147 to 150
2,Nc1cc(OCc2cccc(I)c2)c(C(=O)NC2CN3CCC2CC3)cc1Cl (stereo not drawn),102 to 104
3,CCCCCCCC(=O)NCCCCOS(C)(=O)=O,59 to 60
4,CCN(C/C=C/C#CC(C)(C)C)Cc1cccc(N(C)Cc2cccc(-c3ccsc3)c2)c1,51 to 52
5,COc1ccccc1C=C1NC(=S)NC1=O,234 to 235
6,CC1(C(=O)Cn2cncn2)CC1,58
7,N#Cc1ccc(N2C(=O)N(CCF)C3(CCCC3)C2=O)cc1C(F)(F)F,115
8,CC1(C)CC(=O)Nc2c(Br)cc3c(c21)OC(CN=[N+]=[N-])C3 (stereo not drawn),187 to 189
9,Cc1oc(-c2ccc(C(F)(F)F)cc2)cc1C(=O)Nc1cccc(C=O)c1,183 to 184
10,CS(=O)(=O)c1ccccc1-c1ccc(C(=O)O)cc1,273 to 275
11,NC(=O)N(O)Cc1cccs1,112
12,CCC1CC2=C(CCC(=O)C2)C2CCC3(C)C(=CCC3O)C12 (stereo not drawn),102 to 105
13,CSc1nc(Cl)cc(-c2ccc(C(F)(F)F)cc2)n1,93 to 96
14,CN(C)C(=O)N(C)C(=O)Nc1ccccc1,89.5 to 90.5
15,O=c1nc(-c2ccccc2)c2ccccc2n1CC(F)(F)F,182
16,O=Cc1cc2n(n1)CCOC2,91
17,CCOC(=O)C1=CC(=NO)[C@@H](NC(C)=O)[C@@H]2OC(C)(C)O[C@H]12,106 to 116
18,CN(C)S(=O)(=O)c1ccc(-c2ccccc2)cc1S(=O)(=O)Cl,140 to 143

row,Structure (SMILES),melting point [°C]
1,CC(c1ccccc1)C(C)([N+](=O)[O-])[N+](=O)[O-] (stereo not drawn),76 to 78
2,Nc1nnc(-c2cccc(F)c2F)c(N)n1,229 to 230
3,O=C(NC[C@@H](O)C(=O)O)OCC1c2ccccc2-c2ccccc21,165 to 166
4,O=[N+]([O-])C=C1SCCN1Cc1ccc(Cl)nc1,177 to 179
5,O=C1NCCCC12c1ccccc1-c1ccccc12,> 250
6,O=[N+]([O-])c1ccc2[nH]cc(C3=CCN(Cc4ccccc4)CC3)c2c1,168 to 170
7,Cc1nc(-c2ccc(C=CC3(O)CN4CCC3CC4)cc2)no1 (stereo not drawn),188 to 189
8,O=C(O)C1CCc2ccc([N+](=O)[O-])cc21 (stereo not drawn),92 to 94
9,Cn1ccc(O)cc1=O,165 to 169
10,O=C1NCCc2cc(O)ccc21,204 to 206
11,O=C1c2ccccc2OCN1CCO[N+](=O)[O-],49 to 51
12,CC(=O)c1c(C(C)C)nn2c(C)cccc12,67.5 to 68
13,CC(C)(C)NCC(O)c1ccc(O)c(C(O)CO)c1 (stereo not drawn),190 to 192
14,Cc1cc(C)c(C=C(C(=O)O)c2csc(N)n2)c(C)c1,> 200
15,OCc1c(F)cc(O)cc1Cl,125 to 127
16,c1ccc(Nc2ccc(-c3ccc(N(c4ccc(-c5ccccc5)cc4)c4ccc(-c5ccccc5)cc4)cc3)cc2)cc1,146
17,O=c1[nH]c(COCC(F)(F)F)nc2nccnc12,165 to 167
18,COc1ccc(S(=O)C(C(=O)NO)C(C)C)cc1 (stereo not drawn),163
